Laboratory results reported in PubChem BioAssay (NCI).
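Five compound concentrations were applied to cells in 96-well plates for 48 hours; endpoints were derived by simple linear interpolation of the resulting dose-response curve. GI50 marks 50% less growth. TGI marks complete inhibition of growth.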

Tests used:
Test in all cases: growth of human tumour cells (NCI), 48 h
[1] = tested on: 786-0 renal
[2] = tested on: A498 renal
[3] = tested on: A549 NSCLC
[4] = tested on: ACHN renal
[5] = tested on: BT-549 breast
[6] = tested on: CAKI-1 renal
[7] = tested on: CCRF-CEM leukemia
[8] = tested on: COLO 205 colon
[9] = tested on: DU-145 prostate
[10] = tested on: EKVX NSCLC
[11] = tested on: HCC-2998 colon
[12] = tested on: HCT-116 colon
[13] = tested on: HCT-15 colon
[14] = tested on: HL-60(TB) leukemia
[15] = tested on: HOP-62 NSCLC
[16] = tested on: HOP-92 NSCLC
[17] = tested on: HS 578T breast
[18] = tested on: HT29 colon
[19] = tested on: IGROV1 ovarian
[20] = tested on: K-562 leukemia
[21] = tested on: KM12 colon
[22] = tested on: LOX IMVI melanoma
[23] = tested on: M14 melanoma
[24] = tested on: MALME-3M melanoma
[25] = tested on: MDA-MB-231 breast
[26] = tested on: MDA-MB-435
[27] = tested on: MOLT-4 leukemia
[28] = tested on: NCI-H226 lung
[29] = tested on: NCI-H23 lung
[30] = tested on: NCI-H460 lung
[31] = tested on: NCI-H522 lung
[32] = tested on: NCI/ADR-RES ovarian
[33] = tested on: OVCAR-3 ovarian
[34] = tested on: OVCAR-4 ovarian
[35] = tested on: OVCAR-5 ovarian
[36] = tested on: OVCAR-8 ovarian
[37] = tested on: PC-3 prostate
[38] = tested on: RPMI-8226 leukemia
[39] = tested on: RXF 393 renal
[40] = tested on: SF-268 CNS
[41] = tested on: SF-295 CNS
[42] = tested on: SK-MEL-2 melanoma
[43] = tested on: SK-MEL-28 melanoma
[44] = tested on: SK-MEL-5 melanoma
[45] = tested on: SK-OV-3 ovarian
[46] = tested on: SNB-19 CNS
[47] = tested on: SNB-75 CNS
[48] = tested on: SR leukemia
[49] = tested on: SW-620 colon
[50] = tested on: T-47D breast
[51] = tested on: TK-10 renal
[52] = tested on: U251 CNS
[53] = tested on: UACC-257 melanoma
[54] = tested on: UACC-62 melanoma
[55] = tested on: UO-31 renal
[56] = tested on: MCF7 breast
[57] = tested on: SF-539 CNS
[58] = tested on: SN12C renal

N#Cc1ccc(Oc2nc3ccccc3nc2C(=O)O)cc1
TGI [1]: > 100 µM | TGI [2]: > 100 µM | TGI [3]: > 100 µM | TGI [4]: > 100 µM | TGI [5]: > 100 µM | TGI [6]: > 100 µM | TGI [7]: > 100 µM | TGI [8]: > 100 µM | TGI [9]: > 100 µM | TGI [10]: > 100 µM | TGI [11]: > 100 µM | TGI [12]: > 100 µM | TGI [13]: > 100 µM | TGI [14]: > 100 µM | TGI [15]: > 100 µM | TGI [16]: > 100 µM | TGI [17]: > 100 µM | TGI [18]: > 100 µM | TGI [19]: > 100 µM | TGI [20]: > 100 µM | TGI [21]: > 100 µM | TGI [22]: > 100 µM | TGI [23]: > 100 µM | TGI [24]: > 100 µM | TGI [25]: > 100 µM | TGI [26]: > 100 µM | TGI [27]: > 100 µM | TGI [28]: > 100 µM | TGI [29]: > 100 µM | TGI [30]: > 100 µM | TGI [31]: > 100 µM | TGI [32]: > 100 µM | TGI [33]: > 100 µM | TGI [34]: > 100 µM | TGI [35]: > 100 µM | TGI [36]: > 100 µM | TGI [37]: > 100 µM | TGI [38]: > 100 µM | TGI [39]: > 100 µM | TGI [40]: > 100 µM | TGI [41]: > 100 µM | TGI [42]: > 100 µM | TGI [43]: > 100 µM | TGI [44]: > 100 µM | TGI [45]: > 100 µM | TGI [46]: > 100 µM | TGI [47]: > 100 µM | TGI [48]: > 100 µM | TGI [49]: > 100 µM | TGI [50]: > 100 µM | TGI [51]: > 100 µM | TGI [52]: > 100 µM | TGI [53]: > 100 µM | TGI [54]: > 100 µM | TGI [55]: > 100 µM

CN1C(=O)/C(=C/c2c(Cl)[nH]c3ccccc23)c2ccccc21
GI50 [1]: 32.4 µM | TGI [1]: > 100 µM | GI50 [3]: 79.7 µM | TGI [3]: > 100 µM | GI50 [4]: 32.9 µM | TGI [4]: > 100 µM | GI50 [5]: 37.4 µM | TGI [5]: 94.3 µM | GI50 [6]: 29.8 µM | TGI [6]: 89.5 µM | GI50 [7]: 29 µM | TGI [7]: > 100 µM | GI50 [8]: 18.1 µM | TGI [8]: 34.9 µM | GI50 [9]: 89.5 µM | TGI [9]: > 100 µM | GI50 [10]: 75.2 µM | TGI [10]: > 100 µM | GI50 [12]: 25.9 µM | TGI [12]: 87.8 µM | GI50 [13]: 34.1 µM | TGI [13]: > 100 µM | GI50 [14]: 32.6 µM | TGI [14]: 93.4 µM | GI50 [15]: 31.3 µM | TGI [15]: > 100 µM | GI50 [16]: 37 µM | TGI [16]: > 100 µM | GI50 [17]: 28.9 µM | TGI [17]: 72.9 µM | GI50 [18]: 25.5 µM | TGI [18]: 98.5 µM | GI50 [19]: 37.6 µM | TGI [19]: > 100 µM | GI50 [21]: 2.05 µM | TGI [21]: 10.1 µM | GI50 [22]: 43.3 µM | TGI [22]: > 100 µM | GI50 [23]: 19.8 µM | TGI [23]: 65.8 µM | GI50 [24]: 25.5 µM | TGI [24]: > 100 µM | GI50 [56]: 53.7 µM | TGI [56]: > 100 µM | GI50 [25]: 39 µM | TGI [25]: > 100 µM | GI50 [26]: 23.8 µM | TGI [26]: 59.9 µM | GI50 [27]: 41.8 µM | TGI [27]: > 100 µM | GI50 [28]: 48.3 µM | TGI [28]: > 100 µM | GI50 [29]: 38.2 µM | TGI [29]: > 100 µM | GI50 [30]: 46.7 µM | TGI [30]: > 100 µM | GI50 [31]: 21.4 µM | TGI [31]: 80.1 µM | GI50 [32]: 25.5 µM | TGI [32]: 61.2 µM | GI50 [33]: 22.6 µM | TGI [33]: 58.7 µM | GI50 [34]: 52.3 µM | TGI [34]: > 100 µM | GI50 [35]: 55.9 µM | TGI [35]: > 100 µM | GI50 [36]: 63.4 µM | TGI [36]: > 100 µM | GI50 [37]: 29.5 µM | TGI [37]: > 100 µM | GI50 [38]: 24.1 µM | TGI [38]: > 100 µM | GI50 [39]: 53.4 µM | TGI [39]: > 100 µM | GI50 [40]: 66.7 µM | TGI [40]: > 100 µM | GI50 [41]: 25.9 µM | TGI [41]: 85.5 µM | GI50 [57]: 33 µM | TGI [57]: 75.6 µM | GI50 [42]: 45.1 µM | TGI [42]: > 100 µM | GI50 [43]: 35 µM | TGI [43]: > 100 µM | GI50 [44]: 14.6 µM | TGI [44]: 51.2 µM | GI50 [45]: 25.8 µM | TGI [45]: 67.1 µM | GI50 [58]: 77.2 µM | TGI [58]: > 100 µM | GI50 [46]: 35.4 µM | TGI [46]: > 100 µM | GI50 [49]: 35.8 µM | TGI [49]: > 100 µM | GI50 [50]: 22.5 µM | TGI [50]: 71.2 µM | GI50 [51]: 14 µM | TGI [51]: 46.2 µM | GI50 [52]: 40.4 µM | TGI [52]: > 100 µM | GI50 [53]: > 100 µM | TGI [53]: > 100 µM | GI50 [54]: 37.4 µM | TGI [54]: > 100 µM | GI50 [55]: 37.1 µM | TGI [55]: > 100 µM

COc1ccc(/C=C2\N=C(SC)N(C)C2=O)cc1
TGI [1]: > 100 µM | TGI [2]: > 100 µM | TGI [3]: > 100 µM | TGI [4]: > 100 µM | TGI [5]: > 100 µM | TGI [7]: > 100 µM | TGI [8]: > 100 µM | TGI [9]: > 100 µM | TGI [12]: > 100 µM | TGI [13]: > 100 µM | TGI [14]: > 100 µM | TGI [15]: > 100 µM | TGI [16]: > 100 µM | TGI [17]: 90.4 µM | TGI [18]: > 100 µM | TGI [19]: > 100 µM | TGI [20]: > 100 µM | TGI [22]: > 100 µM | TGI [23]: > 100 µM | TGI [56]: > 100 µM | TGI [25]: > 100 µM | TGI [26]: > 100 µM | TGI [28]: > 100 µM | TGI [29]: > 100 µM | TGI [30]: > 100 µM | TGI [32]: > 100 µM | TGI [33]: > 100 µM | TGI [34]: > 100 µM | TGI [35]: > 100 µM | TGI [36]: > 100 µM | TGI [37]: > 100 µM | TGI [38]: > 100 µM | TGI [39]: > 100 µM | TGI [40]: > 100 µM | TGI [57]: > 100 µM | TGI [42]: > 100 µM | TGI [43]: > 100 µM | TGI [44]: > 100 µM | TGI [45]: > 100 µM | TGI [58]: > 100 µM | TGI [46]: > 100 µM | TGI [47]: > 100 µM | TGI [49]: > 100 µM | TGI [50]: > 100 µM | TGI [51]: > 100 µM | TGI [52]: > 100 µM | TGI [53]: > 100 µM | TGI [54]: > 100 µM | TGI [55]: > 100 µM
